Results: patent US4613666A, “Neplanocin A derivatives” (Toyo Jozo Kabushiki Kaisha, priority 1980, dated 1986)
≈ marks a conversion by molar mass, not a printed value.

Assays:
[1] = test system: L 5178 Y cells; test: growth-inhibitory activity on mouse lymphoma L 5178 Y cells (MIC); assay type: cell-based; settings: 5×10^4 /ml, Fischer's medium with 10% bovine serum, 37° C., 22 hours, phenol red color change, read-out: MIC (minimum inhibitory concentration on cell growth)
Experimental: The growth-inhibitory activities of compound [I] of the present invention on L 5178 Y cells are shown below. (1) Test method:
A test sample (0.3 ml) dissolved in a medium [bovine serum (10%) in Fischer's medium] is added to a mouse lymphoma L 5178 Y cells suspension (2.7 ml, 5×10^4 /ml cells), and the mixture is incubated at 37° C. for 22 hours. Cell-growth is observed by checking the color change of phenol red in the medium. The minimum inhibitory concentration (MIC) of the substance on cell growth is defined by observing apparent growth inhibition as compared with that of control.

[2] = earlier applications cited; cited from earlier work
[3] = test system: plant pathogenic fungi; settings: earlier applications cited; cited from earlier work

| SMILES | MIC [1] [µg/mL] | antitumor activity [2] | inhibitory action for plant pathogenic fungi [3] |
| --- | --- | --- | --- |
| CC(=O)OCC1=C[C@@H](n2cnc3c(N)ncnc32)[C@H](OC(C)=O)[C@@H]1OC(C)=O [2',3',5'-Otriacetyl nephlanocin A, 2',3',5'-O-triacetyl neplanocin A] | 0.8 (≈ 2.05 µM) |  |  |
| Nc1ncnc2c1ncn2[C@@H]1C=C(CO)[C@H]2OC(c3ccccc3)O[C@H]21 (some centres unmarked) [2',3'-Obenzylidene neplanocin A, 2',3'-O-benzylidene neplanocin A] | 4 (≈ 11.4 µM) |  |  |
| O=C(Nc1ncnc2c1ncn2[C@@H]1C=C(COC(=O)c2ccccc2)[C@@H](O)[C@H]1O)c1ccccc1 [N^6,5'-Odibenzoyl neplanocin A, N^6,5'-O-dibenzoyl neplanocin A] | 0.16 (≈ 0.339 µM) |  |  |
| O=C(OCC1=C[C@@H](n2cnc3c(N(C(=O)c4ccccc4)C(=O)c4ccccc4)ncnc32)[C@H](O)[C@@H]1O)c1ccccc1 [N^6,N^6,5'-Otribenzoyl neplanocin A, N^6,N^6 5'-O-tribenzoyl neplanocin A] | 0.16 (≈ 0.278 µM) |  |  |
| Nc1ncnc2c1ncn2[C@@H]1C=C(CO)[C@@H](O)[C@H]1O [Neplanocin A] |  | antitumor activity | inhibitory action for plant pathogenic fungi |
| O=C(Nc1ncnc2c1ncn2[C@@H]1C=C(CO)[C@@H](O)[C@@H]1I)c1ccccc1 [R1=COPh, R4=I, R5=H, R6=H, N^6-benzoyl-2'-(R)-iodo-2'-deoxy neplanocin A] | 100 (≈ 210 µM) |  |  |
| Nc1ncnc2c1ncn2[C@@H]1C=C(CO)[C@@H](O)[C@@H]1Br [R1=H, R4=Br, R5=H, R6=H, 2'-(R)-bromo-2'-deoxy neplanocin A] | 4 (≈ 12.3 µM) |  |  |
| CC(=O)OCC1=C[C@@H](n2cnc3c(N)ncnc32)[C@@H](Cl)[C@@H]1OC(C)=O [R1=H, R4=Cl, R5=Ac, R6=Ac, 2'-(R)-chloro-2'-deoxy-3 '-O,5'-O-diacetyl neplanocin A] | 100 (≈ 273 µM) |  |  |
| Nc1ncnc2c1ncn2[C@@H]1C=C(CO)[C@@H](O)[C@@H]1Cl [R1=H, R4=Cl, R5=H, R6=H, 2'-(R)-chloro-2'-deoxy neplanocin A] | 20 (≈ 71 µM) |  |  |
| Nc1ncnc2c1ncn2[C@@H]1C=C(CO)[C@@H](O)C1 [R1=H, R4=H, R5=H, R6=H, 2'-deoxy neplanocin A] | 4 (≈ 16.2 µM) |  |  |
| Nc1ncnc2c1ncn2[C@@H]1C=C(CO)[C@@H](O)[C@@H]1I [R1=H, R4=I, R5=H, R6=H, 2'-(R)-iodo-2'-deoxy neplanocin A] | 4 (≈ 10.7 µM) |  |  |
| [N-]=[N+]=N[C@H]1[C@H](O)C(CO)=C[C@H]1n1cnc2c(N)ncnc21 [R1=H, R4=N3, R5=H, R6=H, 2'-(R)-azide-2'-deoxyneplanocin A] | 100 (≈ 347 µM) |  |  |
| Nc1ncnc2c1ncn2[C@@H]1C=C(CO)[C@@H](O)[C@@H]1N [R1=H, R4=NH2, R5=H, R6=H, 2'-(R)-amino-2'-deoxy neplanocin A acetate] | 4 |  |  |
